Values joined by “and” are separate entries in the source; they are usually repeats but may differ in a detail not shown here. Equal entries are not always repeated.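 Five compound concentrations were applied to cells in 96-well plates for 48 hours; endpoints were derived by simple linear interpolation of the resulting dose-response curve. Abbreviation: GI50, concentration required for 50% inhibition of growth. TGI is the concentration that stops growth completely.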
What was measured:
Experiment in all cases: DTP human tumour cell line panel, 48 h
HOP-18 NSCLC = tested on: HOP-18 NSCLC
DMS 114 small cell lung = tested on: DMS 114 small cell lung
KM20L2 colon = tested on: KM20L2 colon
SNB-78 CNS = tested on: SNB-78 CNS
RXF-631 renal = tested on: RXF-631 renal
DLD-1 colon = tested on: DLD-1 colon
MDA-N = tested on: MDA-N
DMS 273 small cell lung = tested on: DMS 273 small cell lung
XF 498 CNS = tested on: XF 498 CNS

SMILES	TGI (HOP-18 NSCLC)	TGI (DMS 114 small cell lung) [µM]	TGI (KM20L2 colon)	TGI (SNB-78 CNS) [µM]	TGI (RXF-631 renal) [µM]	TGI (DLD-1 colon) [µM]	TGI (MDA-N) [µM]	TGI (DMS 273 small cell lung) [µM]	TGI (XF 498 CNS) [µM]	also measured
Nc1nc(N)c(-c2ccccc2)c(C(=O)Nc2nccs2)n1	> 100 µM	> 100	> 100 µM	> 100	> 100	> 100	–	–	–	–
COc1cc([C@H]2c3cc(O)c(OC)cc3C[C@]3(O)[C@@H]2CO[C@@H]3O)ccc1O	–	–	–	–	–	–	> 100	–	–	–
O=C(O)C12C3C4C1C1C2C3C41I (centres undefined)	–	> 100	> 100 µM	> 100	> 100	> 100	–	> 100	> 100	–
CCCNc1ncnc2c1cnn2C	> 100 µM	> 100	> 100 µM	> 100	–	–	–	> 100	> 100	–
COC(=O)C1=C(C)N(NC(=O)Nc2ccccc2)C2(N)N(NC(=O)Nc3ccccc3)C(C)=C(C(=O)OC)C12C(=O)OC (centres undefined)	> 100 µM	> 100	> 100 µM	84.6	–	> 100	–	> 100	–	–
CCOC(=O)/C(=C/c1ccc[nH]1)P(=O)(OCC)OCC	> 100 µM	> 100	> 100 µM	> 100	> 100	> 100	–	> 100	> 100	–
O=c1cccccc1[O-].O=c1cccccc1[O-].O=c1cccccc1[O-].[Dy+3]	–	–	> 100 µM	> 100	–	> 100	–	> 100	–	GI50 (KM20L2 colon): 18.4 µM; GI50 (DMS 273 small cell lung): 9.28 µM; GI50 (SNB-78 CNS): 15.3 µM; GI50 (DLD-1 colon): 16.9 µM
CC(C)c1nc(Cl)c(Cl)c(Cl)n1	–	–	–	–	–	–	19	–	–	–
CC(C)C12CCC3(CCC4C(C)(C(=O)O)CCCC4(C)C3C1)C(CN)C2 (centres undefined)	–	–	–	–	–	–	84	–	–	–
CCCCCCCCCCCCCCCC(=O)NCC(OCC)OCC	> 100 µM	> 100	> 100 µM	> 100	> 100	> 100	–	> 100	> 100	–
CN1C/C(=C\c2ccco2)c2nc(N)nc(-c3ccco3)c2C1	–	> 100	> 100 µM	–	–	> 100	–	> 100	90.2	–
CC1=C2[C@@H](c3ccccc3)C3C=CC2(C=C3C(F)(F)F)N(C(=O)NC2CCCCC2)C1=O (some centres undefined)	> 100 µM	> 100	> 100 µM	> 100	> 100	> 100	–	> 100	> 100	–
CC(C)(CCc1nc2ccccc2[nH]1)C(=O)O	–	–	–	–	–	–	> 100	–	–	–
O=C1OC(c2ccccc2)=N/C1=C\c1ccc(N(CCCl)CCCl)cc1	–	–	–	–	–	–	> 100	–	–	–
Cc1cc2c(=O)cc(-c3ccncc3)oc2c(C(=O)O)c1C	> 100 µM	–	> 100 µM	> 100	> 100	–	–	> 100	> 100	–
Cc1nc(-c2cccnc2)sc1C(=O)/C=C/c1ccc(Cl)cc1Cl	> 100 µM	> 100	> 100 µM	> 100	–	> 100	–	> 100	–	–
O=C(/C=C/c1ccc(OCC(=O)N2CCN(c3ccccc3)CC2)cc1)c1ccccc1	> 82.7 µM	–	> 66 µM	> 100	–	> 100	–	–	–	–
COC(=O)/C(=C/c1ccc(OC)cc1)c1cc(OC)c(OC)c(OC)c1	> 100 µM	> 23.3	–	> 100	–	> 100	0.43	> 100	83.7	–
COC(=O)CCSC(=O)Nc1ccccc1Cl	–	> 100	> 100 µM	> 100	–	> 100	–	> 100	–	–
O=[N+]([O-])c1cccc(C2=NOC3CCCC23)c1 (centres undefined)	> 100 µM	> 100	–	> 100	–	> 100	–	> 100	–	–
O=C(CO[N+](=O)[O-])OCC(=O)c1ccccc1	–	–	> 100 µM	–	> 100	> 100	–	> 100	–	–
Cc1ccc(S(=O)(=O)NCc2cccc([N+](=O)[O-])c2)cc1	–	–	–	–	–	–	> 100	–	–	–

SMILES	TGI (HOP-18 NSCLC)	TGI (DMS 114 small cell lung) [µM]	TGI (KM20L2 colon)	TGI (SNB-78 CNS) [µM]	TGI (RXF-631 renal) [µM]	TGI (DLD-1 colon) [µM]	TGI (MDA-N) [µM]	TGI (DMS 273 small cell lung) [µM]	TGI (XF 498 CNS) [µM]	also measured
COc1cccc(OC)c1/C=N\N1C(=O)c2ccccc2C1=O	> 100 µM	91	37.4 µM	> 100	> 100	> 100	–	84.6	86.4	–
Cc1cc2c(SCc3ccccc3Cl)nc(N)nc2nc1C	–	–	–	–	–	–	> 100	–	–	–
CCOC(=O)C1C(=O)C(=O)N2CCc3c([nH]c4ccccc34)C12 (centres undefined)	–	> 100	> 100 µM	–	–	> 100	–	–	–	–
NC1=NN(c2ccccc2)C(=O)C1/C(=N\NC(=O)c1cc2ccccc2cc1O)C(=O)Nc1ccc(Cl)cc1 (centres undefined)	> 100 µM	56.7	> 100 µM	> 100	> 100	> 100	–	> 100	> 100	–
CC1=CC(=O)N2[C@H](OC[C@@H]2C(C)C)O1	> 100 µM	> 100	> 100 µM	–	> 100	> 100	–	–	> 100	–
CC(C)=NO.CC(C)=NO.CC(C)=NO.CC(C)=NO.[Ti]	–	> 100	–	> 100	> 100	> 100	–	> 100	> 100	GI50 (DMS 114 small cell lung): > 100 µM; GI50 (DMS 273 small cell lung): > 100 µM; GI50 (SNB-78 CNS): > 100 µM; GI50 (XF 498 CNS): > 100 µM; GI50 (RXF-631 renal): > 100 µM; GI50 (DLD-1 colon): > 100 µM
CCNC(=O)O/N=C1/C=C2CC[C@@H]3C(CC[C@@]4(C)C3CC[C@@H]4OC(=O)NCC)[C@@]2(C)CC1 (some centres undefined)	–	3.29	5.15 µM	9.3	–	> 100	–	5.5	–	–
O=[N+]([O-])C1(CO)COC(CCc2ccccc2)OC1 (centres undefined)	> 100 µM	–	> 100 µM	–	–	> 100	–	–	> 100	–
CCOC(=O)NC/C=C/CO	> 100 µM	> 100	> 100 µM	> 100	> 100	> 100	–	> 100	–	–
C=CCCC1(CCP(=O)(c2ccccc2)c2ccccc2)OCCO1	–	–	–	–	–	–	> 100	–	–	–
COC(=O)N/N=C(\c1nc2ccc(Cl)cc2[nH]c1=O)C(O)c1ccc([N+](=O)[O-])cc1 (centres undefined)	–	> 100	> 100 µM	> 100	> 100	> 100	–	> 100	–	–
O=NNc1nc(-c2ccccn2)nc2ccccc12	–	–	–	–	–	–	> 100	–	–	–
Cc1c2cc[n+](C)cc2c(C)c2c1[nH]c1ccc(Oc3ccccc3)cc12	21.8 µM and 32.5 µM	–	23 µM and > 52.3 µM	3.47	–	> 100	–	> 100	–	GI50 (HOP-18 NSCLC): 2.37 µM and 5.56 µM; GI50 (DMS 273 small cell lung): 1.15 µM; GI50 (SNB-78 CNS): 0.809 µM and 0.266 µM
Cc1c(N)nc(C2CC(=O)N2CC(N)C(N)=O)nc1C(=O)NC(C(=O)NC(C)C(O)C(C)C(=O)NC(C(=O)NCCc1nc(-c2nc(C(=O)NCCNCC(C)O)cs2)cs1)C(C)O)C(OC1OC(CO)C(O)C(O)C1OC1OC(CO)C(O)C(OC(N)=O)C1O)c1cnc[nH]1 (centres undefined)	> 100 µM	4.47	> 100 µM	> 100	–	> 100	> 50	12	> 22.4	–
O=C(Nc1ccccc1)Oc1ccccc1C1CCCCC1	68.5 µM	32.8	–	54.9	–	> 100	–	42.6	35	–
CCCCc1c2c(nc3c1CC/C(=C\c1ccccc1)C3=O)CCCC2	–	27.5	12.7 µM	9.38	–	12.7	–	8.26	–	–
Oc1ccc(/C=N/Nc2nnc(N/N=C/c3ccc(O)cc3O)c3ccccc23)c(O)c1	–	–	–	–	–	–	0.93	–	–	–
O=C1COc2cc3c(cc2N1)SCC(=O)N3	> 100 µM	> 100	–	> 100	> 100	> 100	–	> 100	> 100	–
CN(C)c1ccc(/C=C2\Cc3ccccc3C2=O)cc1Br	–	> 100	> 100 µM	> 100	–	> 100	–	–	86.2	–
NC(=O)NC(=O)C1CCC(=O)N1S(=O)(=O)c1ccc(Cl)cc1 (centres undefined)	> 100 µM	> 100	> 100 µM	–	> 100	> 100	–	–	> 100	–
Cc1cc(C2(c3cc(C)c(O)c4ncccc34)OC(=O)c3ccccc32)c2cccnc2c1O	–	–	–	–	–	–	> 100	–	–	–
